# Results taken from patent US20180370927A1, “MICROBIOCIDAL OXADIAZOLE DERIVATIVES” (SYNGENTA PARTICIPATIONS AG, priority 2015, published 2018).
# Experiments:
# Uromyces viciae-Fabae = assay: Uromyces viciae-fabae / field bean / leaf disc preventative (faba-bean rust); assay type: in vivo; details: foliar, 288 h, 100 ppm in the applied formulation, field bean leaf discs, assessed 12 days after application, read-out: disease control compared to untreated control leaf discs
# Description: Leaf disks or leaf segments of various plant species are cut from plants grown in a greenhouse. The cut leaf disks or segments are placed in multiwell plates (24-well format) onto water agar. The leaf disks are sprayed with a test solution before (preventative) or after (curative) inoculation. Compounds to be tested are prepared as DMSO solutions (max. 10 mg/mL) which are diluted to the appropriate concentration with 0.025% Tween20 just before spraying. The inoculated leaf disks or segments are incubated under defined conditions (temperature, relative humidity, light, etc.) according to the respective test system. A single evaluation of disease level is carried out 3 to 14 days after inoculation, depending on the pathosystem. Percent disease control relative to the untreated check leaf disks or segments is then calculated.
# Example 5: Fungicidal Activity Against Uromyces viciae-Fabael Field Bean/Leaf Disc Preventative (Faba-Bean Rust)
# Field bean leaf discs are placed on water agar in multiwell plates (96-well format) and 10 μL of the formulated test compound diluted in acetone and a spreader pipetted onto the leaf disc. Two hours after application leaf discs are inoculated by spraying a spore suspension on the lower leaf surface. The leaf discs are incubated in a climate cabinet at 22° C. with 18 hour days and 70% relative humidity. The activity of a compound is assessed as percent disease control compared to untreated when an appropriate level of disease damage appears in untreated check leaf disks (12 days after application).
# The following compounds at 100 ppm in the applied formulation give at least 80% disease control in this test when compared to untreated control leaf discs under the same conditions, which show extensive disease development.
# [1] = system: Glomerella lacenarium (Colletotrichum lacenarium); assay: Glomerella lacenarium (Colletotrichum lacenarium) liquid culture / cucumber / preventative (anthracnose); assay type: cell-based; details: 20 ppm in the applied formulation, liquid culture in PDB, 24° C., 3 to 4 days after application, read-out: disease control (inhibition of growth, photometric) compared to untreated control
# In short: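 Cryostored conidia in potato dextrose broth added to DMSO compound solution in microtiter plates, incubated at 24° C. Growth inhibition read photometrically 3 to 4 days after application, as percent control versus untreated check; compounds tested at 20 ppm.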
# [2] = system: Puccinia recondita f. Sp. Tritici; assay: Puccinia recondita f. sp. tritici / wheat / leaf disc preventative (brown rust); assay type: in vivo; details: foliar, 200 ppm in the applied formulation, wheat leaf segments, preventative, assessed 7 to 9 days after application, read-out: disease control compared to untreated control leaf disks
# In short: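 Wheat cv. Kanzler leaf segments on agar sprayed with formulated compound in water, inoculated with rust spores 1 day later. Incubated at 19° C, 75% rh, 12 h light/12 h dark; percent disease control versus untreated scored 7 to 9 days after application; tested at 200 ppm.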
# Phakopsora pachyrhizi = Phakopsora pachyrhizi / soybean / leaf disc preventative (Asian soybean rust); assay type: in vivo; details: foliar, 200 ppm in the applied formulation, soybean leaf disks, assessed 12 to 14 days after application, read-out: disease control compared to untreated control leaf disks
# In short: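 Soybean leaf discs on water agar were sprayed with formulated compound diluted in water, then inoculated one day later with spore suspension on the lower leaf surface. Held 24-36 h dark at 20° C., 75% RH, then 12 h light/day; percent disease control versus untreated scored 12 to 14 days after application.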
Compound,melting point [°C],pest or weed control at 100 ppm (Uromyces viciae-Fabae) [%],inhibition at 20 ppm [1] [%],pest or weed control at 200 ppm [2] [%],pest or weed control at 200 ppm (Phakopsora pachyrhizi) [%]
"O=C(Nc1ccc(-c2noc(C(F)(F)F)n2)cc1)C(=O)c1ccccc1 [Compound 1.1, 2-oxo-2-phenyl-N-[4-[5-(trifluoromethyl)-1,2,4-oxadiazol-3-yl]phenyl]acetamide]",,≥ 80,,,
"O=C(Nc1ccc(-c2noc(C(F)(F)F)n2)cc1)C(=O)c1cccc(F)c1 [Compound 1.2, 2-(3-fluorophenyl)-2-oxo-N-[4-[5-(trifluoromethyl)-1,2,4-oxadiazol-3-yl]phenyl]acetamide]",,≥ 80,≥ 80,,
"CO/N=C(/C(=O)Nc1ccc(-c2noc(C(F)(F)F)n2)cc1)c1ccccc1 [Compound 2.1, (2E)-2-methoxyimino-2-phenyl-N-[4-[5-(trifluoromethyl)-1,2,4-oxadiazol-3-yl]phenyl]acetamide]",,≥ 80,,,
"CON=C(C(=O)NCc1ccc(-c2noc(C(F)(F)F)n2)cc1)c1ccccc1 [Compound 2.2, 2-methoxyimino-2-phenyl-N-[[4-[5-(trifluoromethyl)-1,2,4-oxadiazol-3-yl]phenyl]methyl]acetamide]",,≥ 80,≥ 80,≥ 80,
"CCOC(=O)C(=O)Nc1ccc(-c2noc(C(F)(F)F)n2)cc1 [Compound 2.3, ethyl 2-oxo-2-[4-[5-(trifluoromethyl)-1,2,4-oxadiazol-3-yl]anilino]acetate]",164 to 166,≥ 80,,≥ 80,
"CCCON(Cc1ccc(-c2noc(C(F)(F)F)n2)cc1)C(=O)C(N)=O [Compound 4.11, N′-propoxy-N′-[[4-[5-(trifluoromethyl)-1,2,4-oxadiazol-3-yl]phenyl]methyl] oxamide]",,≥ 80,≥ 80,≥ 80,

# Further lines, with some results ahead:
melting point [°C],Compound,pest or weed control at 100 ppm (Uromyces viciae-Fabae) [%],inhibition at 20 ppm [1] [%],pest or weed control at 200 ppm [2] [%],pest or weed control at 200 ppm (Phakopsora pachyrhizi) [%]
184 to 186,"O=C(O)C(=O)Nc1ccc(-c2noc(C(F)(F)F)n2)cc1 [Compound 3.1, 2-oxo-2-[4-[5-(trifluoromethyl)-1,2,4-oxadiazol-3-yl]anilino]acetic acid]",≥ 80,,,
209 to 212,"O=C(NCC1CC1)C(=O)Nc1ccc(-c2noc(C(F)(F)F)n2)cc1 [Compound 4.3, N-(cyclopropylmethyl)-N′-[4-[5-(trifluoromethyl)-1,2,4-oxadiazol-3-yl]phenyl]oxamide]",≥ 80,,,≥ 80
212 to 214,"C#CCNC(=O)C(=O)Nc1ccc(-c2noc(C(F)(F)F)n2)cc1 [Compound 4.5, N-prop-2-ynyl-N′-[4-[5-(trifluoromethyl)-1,2,4-oxadiazol-3-yl]phenyl]oxamide]",≥ 80,,,≥ 80
238 to 241,"O=C(Nc1ccc(-c2noc(C(F)(F)F)n2)cc1)C(=O)NC1CC1 [Compound 4.6, N′-cyclopropyl-N-[4-[5-(trifluoromethyl)-1,2,4-oxadiazol-3-yl]phenyl]oxamide]",≥ 80,,,≥ 80
232 to 234,"CN(C)NC(=O)C(=O)Nc1ccc(-c2noc(C(F)(F)F)n2)cc1 [Compound 4.8, 2-(2,2-dimethylhydrazino)-2-oxo-N-[4-[5-(trifluoromethyl)-1,2,4-oxadiazol-3-yl]phenyl]acetamide]",≥ 80,,,≥ 80
163 to 165,"CON(C)C(=O)C(=O)Nc1ccc(-c2noc(C(F)(F)F)n2)cc1 [Compound 4.9, N′-methoxy-N′-methyl-N-[4-[5-(trifluoromethyl)-1,2,4-oxadiazol-3-yl]phenyl]oxamide]",≥ 80,≥ 80,≥ 80,≥ 80
